Results published in PubChem BioAssay AID256 (DTP/NCI, 2004).
“And” between values parts separate entries of the source, which are not always exact repeats. Equal entries are not always repeated. Toxic doses and inconclusive results are not listed. How the source made its calls: active means survival T/C of 150% or more; inactive means T/C below 125% in these data.

Test system: CD2F1 mice, L1210 leukemia ip, survival T/C
Assay: NCI In Vivo Anticancer Drug Screen. Data for tumor model L1210 Leukemia (intraperitoneal) in CD2F1 (CDF1) mice
Conditions: higher = longer survival
Outline: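 Compound-dosed mice with transplantable tumor versus matched vehicle controls; endpoint ratio T/C reported.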

[1] = endpoint: mean survival time, dose: 25.0 mg/kg/injection, schedule: Q01DX009 (ip), vehicle: saline with Tween-80
[2] = endpoint: mean survival time, dose: 50.0 mg/kg/injection, schedule: Q01DX009 (ip), vehicle: saline with Tween-80
[3] = endpoint: mean survival time, dose: 100.0 mg/kg/injection, schedule: Q01DX009 (ip), vehicle: saline with Tween-80
[4] = endpoint: mean survival time, dose: 25.0 mg/kg/injection, schedule: Q04DX003 (ip), vehicle: saline
[5] = endpoint: mean survival time, dose: 100.0 mg/kg/injection, schedule: Q04DX003 (ip), vehicle: saline with Tween-80
[6] = endpoint: mean survival time, dose: 200.0 mg/kg/injection, schedule: Q01DX009 (ip), vehicle: saline with Tween-80
[7] = endpoint: mean survival time, dose: 200.0 mg/kg/injection, schedule: Q04DX003 (ip), vehicle: saline with Tween-80
[8] = endpoint: mean survival time, dose: 400.0 mg/kg/injection, schedule: Q01DX009 (ip), vehicle: saline with Tween-80
[9] = endpoint: mean survival time, dose: 400.0 mg/kg/injection, schedule: Q04DX003 (ip), vehicle: saline with Tween-80
[10] = endpoint: mean survival time, dose: 100.0 mg/kg/injection, schedule: Q04DX003 (ip), vehicle: saline

Measured: T/C

O=c1oc(-c2ccccc2)nc2cc(Cl)ccc12
inactive: [1] 105 % of control | [2] 100 % of control | [3] 105 % of control

N=C(N)SCCc1ccccc1
inactive: endpoint: mean survival time, dose: 12.5 mg/kg/injection, schedule: Q01DX001 (ip), vehicle: saline 95 % of control | endpoint: mean survival time, dose: 25.0 mg/kg/injection, schedule: Q01DX001 (ip), vehicle: saline 100 % of control | endpoint: mean survival time, dose: 50.0 mg/kg/injection, schedule: Q01DX001 (ip), vehicle: saline 103 % of control

c1cc2c(c(N3CCNCC3)c1)CCCC2
inactive: endpoint: mean survival time, dose: 100.0 mg/kg/injection, schedule: Q01DX001 (ip), vehicle: saline with Tween-80 110 % of control | endpoint: mean survival time, dose: 200.0 mg/kg/injection, schedule: Q01DX001 (ip), vehicle: saline with Tween-80 95 % of control

NC(=O)C1=CC2C3C=CC2(O)C(=O)OC3O1 (stereo not given)
inactive: endpoint: median survival time, dose: 1.9 mg/kg/injection, schedule: Q01DX009 (ip), vehicle: Klucel (hydroxypropylcellulose) (HPC) 108 % of control | endpoint: median survival time, dose: 3.75 mg/kg/injection, schedule: Q01DX009 (ip), vehicle: Klucel (hydroxypropylcellulose) (HPC) 120 % of control | endpoint: median survival time, dose: 7.5 mg/kg/injection, schedule: Q01DX009 (ip), vehicle: Klucel (hydroxypropylcellulose) (HPC) 118 % of control | endpoint: median survival time, dose: 15.0 mg/kg/injection, schedule: Q01DX009 (ip), vehicle: Klucel (hydroxypropylcellulose) (HPC) 117 % of control | endpoint: median survival time, dose: 30.0 mg/kg/injection, schedule: Q01DX009 (ip), vehicle: Klucel (hydroxypropylcellulose) (HPC) 121 % of control and 110 % of control

Cc1c2cc3c(cc2cc2c4cc5c(cc4cc[n+]12)OCO5)OCO3 (tested in a mixture with another compound)
inactive: endpoint: mean survival time, dose: 6.25 mg/kg/injection, schedule: Q04DX003 (ip), vehicle: saline 116 % of control and 121 % of control | endpoint: mean survival time, dose: 18.75 mg/kg/injection, schedule: Q04DX003 (ip), vehicle: saline 95 % of control | [4] 115 % of control and 90 % of control

C#CCN(CC#C)C(=O)CCCCCCCCC=C
inactive: [3] 90 % of control | [5] 107 % of control | [6] 93 % of control | [7] 92 % of control | [8] 93 % of control | [9] 98 % of control

COC(=O)c1cccc2c(Cl)cc3ccccc3c12
inactive: [3] 105 % of control | [5] 98 % of control | [6] 105 % of control | [7] 104 % of control | [8] 103 % of control | [9] 97 % of control

CC(C)(C)OC(=O)NCCCC(=O)O
inactive: [5] 93 % of control | [7] 90 % of control

O=C1CC(=Nc2ccc([N+](=O)[O-])cc2)NN1c1c(Cl)cc(Cl)cc1Cl
inactive: [5] 101 % of control | [7] 97 % of control | [9] 97 % of control

Nc1nc(Br)c(Br)nc1N
inactive: endpoint: mean survival time, dose: 100.0 mg/kg/injection, schedule: Q01DX009 (ip), vehicle: other 92 % of control | endpoint: mean survival time, dose: 200.0 mg/kg/injection, schedule: Q01DX009 (ip), vehicle: other 103 % of control | endpoint: mean survival time, dose: 400.0 mg/kg/injection, schedule: Q01DX009 (ip), vehicle: other 95 % of control

c1ccc2c(c1)[nH]c1c3[n+](ccc12)CCCC3
inactive: endpoint: mean survival time, dose: 100.0 mg/kg/injection, schedule: Q01DX001 (ip), vehicle: saline 119 % of control

Cc1noc(/N=C/c2cccc(Cl)c2)c1C
inactive: [10] 96 % of control | endpoint: mean survival time, dose: 200.0 mg/kg/injection, schedule: Q04DX003 (ip), vehicle: saline 101 % of control | endpoint: mean survival time, dose: 400.0 mg/kg/injection, schedule: Q04DX003 (ip), vehicle: saline 101 % of control

C#CCNc1ncnc2c1ncn2C1OC(CO)C(O)C1O (stereo not given)
inactive: endpoint: mean survival time, dose: 12.5 mg/kg/injection, schedule: Q01DX005 (ip), vehicle: other 96 % of control | endpoint: mean survival time, dose: 25.0 mg/kg/injection, schedule: Q01DX005 (ip), vehicle: other 97 % of control | endpoint: mean survival time, dose: 50.0 mg/kg/injection, schedule: Q01DX005 (ip), vehicle: other 111 % of control | endpoint: mean survival time, dose: 100.0 mg/kg/injection, schedule: Q01DX005 (ip), vehicle: other 114 % of control | endpoint: mean survival time, dose: 200.0 mg/kg/injection, schedule: Q01DX005 (ip), vehicle: other 111 % of control

Cc1ccc(N2C(=O)CC(Sc3ccccc3N)C2=O)cc1Cl (stereo not given)
inactive: [3] 95 % of control | [6] 103 % of control | [8] 95 % of control

C[P+]1(c2ccccc2)c2ccccc2Oc2ccccc21
inactive: endpoint: mean survival time, dose: 75.0 mg/kg/injection, schedule: Q01DX001 (ip), vehicle: saline 102 % of control

C[C@@H]1C[C@@H]([C@H](O)CC2CC(=O)NC(=O)C2)C(=O)[C@@H](C)C1
inactive: endpoint: mean survival time, dose: 5.0 mg/kg/injection, schedule: Q01DX009 (ip), vehicle: saline 104 % of control and 109 % of control | endpoint: mean survival time, dose: 10.0 mg/kg/injection, schedule: Q01DX007 (ip), vehicle: saline 107 % of control | endpoint: mean survival time, dose: 10.0 mg/kg/injection, schedule: Q03DX003 (ip), vehicle: saline 96 % of control | endpoint: mean survival time, dose: 10.0 mg/kg/injection, schedule: Q04DX003 (ip), vehicle: saline 100 % of control | endpoint: mean survival time, dose: 20.0 mg/kg/injection, schedule: Q01DX007 (ip), vehicle: saline 107 % of control | endpoint: mean survival time, dose: 20.0 mg/kg/injection, schedule: Q03DX003 (ip), vehicle: saline 100 % of control | endpoint: mean survival time, dose: 20.0 mg/kg/injection, schedule: Q04DX003 (ip), vehicle: saline 100 % of control | endpoint: mean survival time, dose: 40.0 mg/kg/injection, schedule: Q01DX007 (ip), vehicle: saline 115 % of control | endpoint: mean survival time, dose: 40.0 mg/kg/injection, schedule: Q03DX003 (ip), vehicle: saline 104 % of control | endpoint: mean survival time, dose: 40.0 mg/kg/injection, schedule: Q04DX003 (ip), vehicle: saline 106 % of control | endpoint: mean survival time, dose: 80.0 mg/kg/injection, schedule: Q01DX009 (ip), vehicle: saline 120 % of control | endpoint: mean survival time, dose: 160.0 mg/kg/injection, schedule: Q01DX009 (ip), vehicle: saline 89 % of control | endpoint: median survival time, dose: 12.5 mg/kg/injection, schedule: Q01DX009 (ip), vehicle: saline 109 % of control | endpoint: median survival time, dose: 25.0 mg/kg/injection, schedule: Q01DX009 (ip), vehicle: saline 114 % of control and 119 % of control | endpoint: median survival time, dose: 200.0 mg/kg/injection, schedule: Q01DX009 (ip), vehicle: saline 101 % of control

O=C(O)CSc1nc2ccccc2s1
inactive: [1] 96 % of control | [2] 95 % of control | [3] 97 % of control | [5] 93 % of control | [7] 94 % of control | [9] 96 % of control

NC(=O)c1cc2c(N)[nH]nc2nc1N
inactive: endpoint: mean survival time, dose: 6.25 mg/kg/injection, schedule: Q01DX009 (ip), vehicle: saline with Tween-80 97 % of control | endpoint: mean survival time, dose: 6.25 mg/kg/injection, schedule: Q04DX003 (ip), vehicle: saline with Tween-80 94 % of control | endpoint: mean survival time, dose: 12.5 mg/kg/injection, schedule: Q01DX009 (ip), vehicle: saline with Tween-80 103 % of control | endpoint: mean survival time, dose: 12.5 mg/kg/injection, schedule: Q04DX003 (ip), vehicle: saline with Tween-80 97 % of control | [1] 92 % of control | endpoint: mean survival time, dose: 25.0 mg/kg/injection, schedule: Q04DX003 (ip), vehicle: saline with Tween-80 92 % of control

CC(=O)CC(C)=Nc1cccc(Cl)c1
inactive: endpoint: mean survival time, dose: 100.0 mg/kg/injection, schedule: Q04DX002 (ip), vehicle: saline with Tween-80 98 % of control | endpoint: mean survival time, dose: 200.0 mg/kg/injection, schedule: Q04DX002 (ip), vehicle: saline with Tween-80 95 % of control | endpoint: mean survival time, dose: 400.0 mg/kg/injection, schedule: Q04DX002 (ip), vehicle: saline with Tween-80 95 % of control

Cc1cc(N/N=c2/c3ccccc3n(O)c3c2ccc2ccccc23)ccc1O
inactive: [5] 104 % of control | [7] 104 % of control | [9] 104 % of control

O=C1OC(c2ccccc2)(c2ccccc2)c2cccc3cccc1c23
inactive: [5] 93 % of control | [9] 86 % of control

Nc1c2ccccc2c[n+]2ccccc12
inactive: endpoint: mean survival time, dose: 12.5 mg/kg/injection, schedule: Q04DX003 (ip), vehicle: saline 112 % of control | [4] 124 % of control | endpoint: mean survival time, dose: 50.0 mg/kg/injection, schedule: Q04DX003 (ip), vehicle: saline 114 % of control | [10] 121 % of control

C=C(CC(=O)O)C(=O)O
inactive: [5] 93 % of control | [7] 98 % of control

O=C(NCCO)NCCO
inactive: endpoint: mean survival time, dose: 100.0 mg/kg/injection, schedule: Q01DX009 (ip), vehicle: saline sonified 110 % of control | endpoint: mean survival time, dose: 200.0 mg/kg/injection, schedule: Q01DX009 (ip), vehicle: saline sonified 104 % of control | endpoint: mean survival time, dose: 400.0 mg/kg/injection, schedule: Q01DX009 (ip), vehicle: saline sonified 110 % of control

O=C1NC(=O)c2cccc3cccc1c23
inactive: [3] 100 % of control | [5] 98 % of control | [6] 96 % of control | [7] 102 % of control | [8] 94 % of control | [9] 100 % of control

CCC(=O)NC1=C(Cl)C(=O)c2ccccc2C1=O
inactive: endpoint: mean survival time, dose: 5.0 mg/kg/injection, schedule: Q01DX001 (ip), vehicle: saline 91 % of control | endpoint: mean survival time, dose: 10.0 mg/kg/injection, schedule: Q01DX001 (ip), vehicle: saline 101 % of control | endpoint: mean survival time, dose: 20.0 mg/kg/injection, schedule: Q01DX001 (ip), vehicle: saline 97 % of control

COc1cc([N+](=O)[O-])ccc1NC(=O)Oc1ccccc1F
inactive: [3] 109 % of control | [6] 109 % of control | [8] 108 % of control
